Data from paper PMC9000625, “Target Design of Novel Histone Deacetylase 6 Selective Inhibitors with 2-Mercaptoquinazolinone as the Cap Moiety” (Molecules, 2022).
“And” between values parts separate entries of the source, which are not always exact repeats. Equal values may be shown once. Read-outs that look alike come from different tables or passages of the source.

Assays:
MCF-7 cells = assay: Antiproliferative assay (CELLOMAX viability), MCF-7; assay type: cell-based, human; details: for IC50 / Emax: MCF-7, 48 h; for IC50: read-out: IC50 (µM), antiproliferative activity against MCF-7; for Emax: MCF7, highest concentration 250 µM, read-out: Imax (%)
Description: The MCF-7 cell line was obtained from Korean Cell Line Bank (KCLB, Seoul, Korea). The cells were cultured in vitro in DMEM (Invitrogen, Paisley, UK) containing 10% fetal bovine serum (Gibco, Thermo Fisher Scientific, Waltham, MA, USA) and 1% penicillin. Cells were treated with different concentrations of compounds (1–15) in a 1:3 the highest concentration was 250 µM (before dilution) and further incubated for 48 hrs. […] We evaluated the antiproliferative activity of compound 8 against a variety of cells.
The MCF-7 cell line was obtained from ATCC. The cells were cultured in vitro in DMEM (Invitrogen, Paisley, UK) containing 10% fetal bovine serum (Gibco, Thermo Fisher Scientific, Waltham, MA) and 1% penicillin. For cytotoxicity assays, MCF-7 cells were seeded into 96-well culture plates at […] in 0.1 mL of DMEM and incubated at 37 °C with 5% CO2 and 90% humidity. After 16 h, the cells were treated with drugs (250 μM, serially diluted up to three-fold) for 48 h. Cell viability was measured using the CELLOMAXTM Viability Assay kit (Precaregene Co., Seoul, Korea). UV absorption at 450 nm wavelength was measured using an Infinite M200 microplate reader (Tecan, Zürich, Switzerland). The IC50 values were calculated using Prism v7.0 (GraphPad Software Inc., La Jolla, CA). The inhibitory activity of the tested compounds was evaluated by an 8-point dose–response curve (DRC) analysis in triplicates.

HDAC3 = molecular target: T1, HDAC3 (Homo sapiens, UniProt O15379); assay: HDAC enzyme inhibition assay, HDAC3; assay type: biochemical; details: read-out: IC50 (µM) HDAC3 (Class I)
T1 construct: purchased PBS Biosciences [sic]
Description: (§1) The compounds were diluted to the indicated concentrations and mixed with HDAC enzymes (HDAC1, HDAC3, HDAC6, HDAC8, HDAC11) and the substrate for 1 h (PBS Biosciences). The fluorescence intensity was measured according to the manufacturer’s instructions.

HDAC8 = molecular target: T2, HDAC8 (Homo sapiens, UniProt Q9BY41); assay: HDAC enzyme inhibition assay, HDAC8; assay type: biochemical; details: read-out: IC50 (µM) HDAC8 (Class I)
T2 construct: purchased PBS Biosciences [sic]
T2 sequence (Q9BY41 1-377): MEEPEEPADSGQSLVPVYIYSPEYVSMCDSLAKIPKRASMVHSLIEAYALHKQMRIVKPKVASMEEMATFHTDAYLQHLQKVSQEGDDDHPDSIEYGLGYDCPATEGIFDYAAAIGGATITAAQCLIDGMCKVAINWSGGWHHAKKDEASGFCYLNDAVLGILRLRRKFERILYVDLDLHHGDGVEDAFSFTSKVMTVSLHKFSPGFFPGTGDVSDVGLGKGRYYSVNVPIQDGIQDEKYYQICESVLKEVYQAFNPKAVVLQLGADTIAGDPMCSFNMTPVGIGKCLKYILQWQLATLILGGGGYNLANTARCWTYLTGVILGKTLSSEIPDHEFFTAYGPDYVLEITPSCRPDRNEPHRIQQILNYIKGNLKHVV
Description: as §1

HDAC4 = molecular target: T3, HDAC4 (Homo sapiens, UniProt P56524); assay: HDAC enzyme inhibition assay, HDAC4; assay type: biochemical; details: read-out: IC50 (µM) HDAC4 (Class IIa)
T3 construct: purchased PBS Biosciences [sic]

HDAC6 = molecular target: T4, HDAC6 (Homo sapiens, UniProt Q9UBN7); assay: HDAC enzyme inhibition assay, HDAC6; assay type: biochemical
T4 construct: purchased PBS Biosciences [sic]
T4 sequence (Q9UBN7 1-1215): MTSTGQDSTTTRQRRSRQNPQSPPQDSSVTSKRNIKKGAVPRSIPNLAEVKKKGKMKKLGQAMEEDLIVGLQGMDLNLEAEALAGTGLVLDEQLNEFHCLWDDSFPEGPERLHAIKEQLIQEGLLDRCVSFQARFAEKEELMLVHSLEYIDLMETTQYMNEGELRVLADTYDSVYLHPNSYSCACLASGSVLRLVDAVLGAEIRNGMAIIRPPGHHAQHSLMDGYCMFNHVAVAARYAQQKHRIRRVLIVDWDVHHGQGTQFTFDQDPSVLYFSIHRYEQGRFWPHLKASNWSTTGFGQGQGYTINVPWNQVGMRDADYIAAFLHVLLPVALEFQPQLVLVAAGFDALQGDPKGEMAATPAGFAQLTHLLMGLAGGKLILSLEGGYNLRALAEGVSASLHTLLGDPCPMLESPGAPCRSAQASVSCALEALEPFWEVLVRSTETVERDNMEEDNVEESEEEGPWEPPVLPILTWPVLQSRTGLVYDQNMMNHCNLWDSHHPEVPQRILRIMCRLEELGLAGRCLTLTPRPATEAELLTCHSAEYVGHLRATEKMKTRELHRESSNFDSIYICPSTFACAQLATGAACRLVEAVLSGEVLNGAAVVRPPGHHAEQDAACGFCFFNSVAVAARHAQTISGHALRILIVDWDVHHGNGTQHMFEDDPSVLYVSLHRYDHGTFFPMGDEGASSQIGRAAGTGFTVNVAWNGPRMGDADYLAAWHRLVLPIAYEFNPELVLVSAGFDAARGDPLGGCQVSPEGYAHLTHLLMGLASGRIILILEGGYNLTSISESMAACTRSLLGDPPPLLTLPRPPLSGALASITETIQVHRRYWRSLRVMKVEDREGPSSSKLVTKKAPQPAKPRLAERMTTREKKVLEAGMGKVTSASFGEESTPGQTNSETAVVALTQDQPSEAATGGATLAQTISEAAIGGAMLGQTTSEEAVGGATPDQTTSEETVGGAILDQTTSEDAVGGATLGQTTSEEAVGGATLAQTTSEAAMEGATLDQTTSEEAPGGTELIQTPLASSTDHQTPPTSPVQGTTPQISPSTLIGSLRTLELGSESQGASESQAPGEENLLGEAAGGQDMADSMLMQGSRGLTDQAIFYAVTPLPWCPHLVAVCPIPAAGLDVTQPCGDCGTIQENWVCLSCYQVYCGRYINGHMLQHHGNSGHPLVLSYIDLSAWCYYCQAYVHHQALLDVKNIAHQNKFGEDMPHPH
Description: as §1

HDAC11 = molecular target: T5, HDAC11 (Homo sapiens, UniProt Q96DB2); assay: HDAC enzyme inhibition assay, HDAC11; assay type: biochemical
T5 construct: purchased PBS Biosciences [sic]
T5 sequence (Q96DB2 1-347): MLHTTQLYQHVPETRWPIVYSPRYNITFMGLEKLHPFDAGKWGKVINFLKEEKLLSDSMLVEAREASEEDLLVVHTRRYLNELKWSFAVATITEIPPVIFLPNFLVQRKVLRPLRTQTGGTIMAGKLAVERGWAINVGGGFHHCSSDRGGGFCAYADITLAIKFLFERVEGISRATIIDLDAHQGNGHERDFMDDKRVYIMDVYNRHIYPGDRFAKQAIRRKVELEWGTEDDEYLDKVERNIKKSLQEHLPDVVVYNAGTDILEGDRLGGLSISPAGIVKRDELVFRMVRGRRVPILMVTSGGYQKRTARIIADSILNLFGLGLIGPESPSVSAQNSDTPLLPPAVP
Description: as §1

[1] = system: acetylated tubulin (HDAC6 substrate) in MCF-7 cells; assay: Western blot of acetylated tubulin in MCF-7; assay type: cell-based, human
Description: (§2) MCF-7 and N2a cell lines were incubated with various concentrations of test agents for 6 h. Cell lysis and Western blot analyses were performed as previously described. Anti-acetylated tubulin antibody and horseradish peroxidase (HRP)-conjugated secondary antibodies (Santa Cruz Biotechnology) were used. Immunoreactive bands were visualized using enhanced chemiluminescence (Millipore, Burlington, MA, USA).
(§3) GAPDH was used as a loading control.

[2] = system: acetylated tubulin (HDAC6 substrate) in N2a cells; assay: Western blot of acetylated tubulin in N2a; assay type: cell-based; details: 6 h, 10, 2, and 0.2 µM
Description: as §2, §3

MDA-MB 231 cells = assay: Antiproliferation, MDA-MB 231; assay type: cell-based; details: Homo sapiens, Breast
EMT 6 cells = assay: Antiproliferation, EMT 6; assay type: cell-based; details: Mus musculus, EMT6; Breast
N2A cells = assay: Antiproliferation, N2A; assay type: cell-based; details: Mus musculus, Brain
Hepa1c1c7 cells = assay: Antiproliferation, Hepa1c1c7; assay type: cell-based; details: Hepa-1c1c7; Liver
SKOV3 cells = assay: Antiproliferation, SKOV3; assay type: cell-based; details: Homo sapiens, SK-OV-3; Ovarian
SW620 cells = assay: Antiproliferation, SW620; assay type: cell-based; details: Homo sapiens, SW-620; Colon
PANC1 cells = assay: Antiproliferation, PANC1; assay type: cell-based; details: Homo sapiens, PANC-1; Pancreas

T3 sequence (P56524 whole entry): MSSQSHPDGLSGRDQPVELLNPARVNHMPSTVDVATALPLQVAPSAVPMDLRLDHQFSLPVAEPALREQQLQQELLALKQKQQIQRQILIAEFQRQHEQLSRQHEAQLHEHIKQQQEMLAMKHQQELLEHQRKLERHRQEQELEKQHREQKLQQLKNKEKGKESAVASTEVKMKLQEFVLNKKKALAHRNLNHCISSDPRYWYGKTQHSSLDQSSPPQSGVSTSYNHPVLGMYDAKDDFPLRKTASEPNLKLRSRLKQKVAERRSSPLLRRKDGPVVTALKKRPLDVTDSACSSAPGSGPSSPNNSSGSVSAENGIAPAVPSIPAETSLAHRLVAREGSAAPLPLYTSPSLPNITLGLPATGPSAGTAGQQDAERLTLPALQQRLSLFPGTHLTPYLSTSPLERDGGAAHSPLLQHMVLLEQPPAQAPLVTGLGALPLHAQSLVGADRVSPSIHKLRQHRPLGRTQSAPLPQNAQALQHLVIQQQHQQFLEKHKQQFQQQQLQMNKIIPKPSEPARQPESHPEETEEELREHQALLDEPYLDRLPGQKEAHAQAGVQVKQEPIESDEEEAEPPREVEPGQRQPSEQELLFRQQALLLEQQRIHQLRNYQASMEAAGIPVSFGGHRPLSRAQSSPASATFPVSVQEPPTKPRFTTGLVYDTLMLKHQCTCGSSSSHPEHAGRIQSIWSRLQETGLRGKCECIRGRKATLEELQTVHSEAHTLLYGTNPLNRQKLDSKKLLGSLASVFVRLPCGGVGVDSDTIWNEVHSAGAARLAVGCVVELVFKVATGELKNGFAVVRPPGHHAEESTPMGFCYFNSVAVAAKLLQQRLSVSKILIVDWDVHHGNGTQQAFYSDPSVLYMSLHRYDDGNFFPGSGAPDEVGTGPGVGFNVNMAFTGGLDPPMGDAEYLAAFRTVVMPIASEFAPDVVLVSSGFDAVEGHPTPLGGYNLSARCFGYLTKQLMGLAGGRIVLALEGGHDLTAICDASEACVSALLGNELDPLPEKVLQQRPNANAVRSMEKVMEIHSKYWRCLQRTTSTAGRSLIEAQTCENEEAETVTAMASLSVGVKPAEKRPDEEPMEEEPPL
T1 sequence (O15379 whole entry): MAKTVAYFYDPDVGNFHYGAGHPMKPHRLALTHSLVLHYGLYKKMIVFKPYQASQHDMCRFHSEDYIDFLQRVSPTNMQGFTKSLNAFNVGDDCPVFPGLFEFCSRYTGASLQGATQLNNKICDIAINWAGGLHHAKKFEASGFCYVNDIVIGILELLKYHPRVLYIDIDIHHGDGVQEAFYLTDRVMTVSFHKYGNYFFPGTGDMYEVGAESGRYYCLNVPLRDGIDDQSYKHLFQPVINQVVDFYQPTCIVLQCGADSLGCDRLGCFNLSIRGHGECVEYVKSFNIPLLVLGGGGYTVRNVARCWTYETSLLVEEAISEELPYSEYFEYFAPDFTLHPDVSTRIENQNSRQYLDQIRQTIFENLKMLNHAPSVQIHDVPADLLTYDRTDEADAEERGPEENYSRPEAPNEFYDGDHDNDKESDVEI
T1 sequence (Q9Y618 395-489 partner limits assumed): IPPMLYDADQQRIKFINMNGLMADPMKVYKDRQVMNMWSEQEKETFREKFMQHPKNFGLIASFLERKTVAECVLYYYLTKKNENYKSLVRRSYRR

## O=C(CCCCSc1nc2ccccc2c(=O)n1Cc1ccc(F)cc1)NO [Compound 8]
MCF-7 cells; Homo sapiens, MCF7, 48 h
  IC50: 3.4 µM
MCF-7 cells; Homo sapiens
  Emax: 90.6%
MCF-7 cells
  IC50: 3.44 ± 1.11 µM
HDAC3
  IC50: 2.7 ± 0.08 µM
HDAC8
  IC50: 0.8 ± 0.01 µM
HDAC4
  IC50: > 10 µM
HDAC6; ratio of IC50
  Selective Fold (Ratio) HDAC3/ HDAC6: 7.9 fold and 7.94 fold
  Selective Fold (Ratio) HDAC4/ HDAC6: >29.4 fold
  Selective Fold (Ratio) HDAC8/ HDAC6: 2.3 fold and 2.32 fold
  Selective Fold (Ratio) HDAC11/ HDAC6: >29.4 fold
HDAC6; read-out: IC50 (µM) HDAC6 (Class IIb)
  IC50: 2.3 µM and 0.3 µM
HDAC11; dose-dependent
  HDAC11 inhibition compared to Belinostat (in words): higher activity against HDAC11 compared to the reference
HDAC11; read-out: IC50 (µM) HDAC11 (Class IV)
  IC50: ~3 µM
[1]; 10 µM, cell line not named
  acetylation level of tubulin (Western blot) at 10 µM: increased acetylation level of tubulin
[1]; MCF-7, 6 h, 10, 2, and 0.2 µM
  acetylation of tubulin (Western blot): induced acetylated tubulin levels in a dose-dependent manner
[2]
  acetylation of tubulin (Western blot): induced acetylated tubulin levels in a dose-dependent manner
MDA-MB 231 cells
  IC50: 0.51 ± 0.02 µM
EMT 6 cells
  IC50: 1.3 ± 0.3 µM
N2A cells
  IC50: 3.2 ± 0.1 µM
Hepa1c1c7 cells
  IC50: 1.3 ± 0.2 µM
SKOV3 cells
  IC50: 4.5 ± 0.1 µM
SW620 cells
  IC50: 0.81 ± 0.01 µM
PANC1 cells
  IC50: 12.8 ± 0.75 µM
other
  melting point: 138 to 140 °C

## Cc1ccc(Cn2c(SCC(=O)NO)nc3ccccc3c2=O)cc1 [Compound 6]
MCF-7 cells; Homo sapiens
  Emax: 22%
other
  melting point: 184 to 186 °C

## O=C(CSc1nc2ccccc2c(=O)n1Cc1ccc(F)cc1)NO [Compound 2]
MCF-7 cells; Homo sapiens
  Emax: 11%

## COc1ccc(-c2nc3ccccc3c(=O)n2CCCCC(=O)NO)cc1 [Compound 13]
MCF-7 cells; Homo sapiens, MCF7, 48 h
  IC50: 37.3 ± 1.21 µM
MCF-7 cells; Homo sapiens
  Emax: 95.8%
other
  melting point: 173 to 175 °C

## O=C(CCCCSc1nc2ccccc2c(=O)n1Cc1cccc(F)c1)NO [Compound 9]
MCF-7 cells; Homo sapiens, MCF7, 48 h
  IC50: 36.9 ± 1.12 µM
MCF-7 cells; Homo sapiens
  Emax: 96.8%
MCF-7 cells; MCF-7
  antiproliferative activity (in words): loss of activity
other
  melting point: 145 to 147 °C

## O=C(CCCCSc1nc2ccccc2c(=O)n1Cc1ccc(-c2ccccc2)cc1)NO [Compound 10]
MCF-7 cells; Homo sapiens, MCF7, 48 h
  IC50: 14.2 ± 1.14 µM
MCF-7 cells; Homo sapiens
  Emax: 89.7%
other
  melting point: 180 to 182 °C

## O=C(CCCCn1c(-c2ccc(F)cc2)nc2ccccc2c1=O)NO [Compound 14]
MCF-7 cells; Homo sapiens, MCF7, 48 h
  IC50: 37.9 ± 1.71 µM
MCF-7 cells; Homo sapiens
  Emax: 100%
other
  melting point: 156 to 158 °C

## O=C(CSc1nc2ccccc2c(=O)n1Cc1ccccc1)NO [Compound 1]
MCF-7 cells; Homo sapiens
  Emax: 20%
other
  melting point: 188 to 191 °C

## O=C(CN1CCN(CCn2c(-c3ccc(F)cc3)nc3ccccc3c2=O)CC1)NO [Compound 11]
other
  melting point: 120 to 122 °C

## O=C(CSc1nc2ccccc2c(=O)n1Cc1ccccc1[N+](=O)[O-])NO [Compound 5]
MCF-7 cells; Homo sapiens
  Emax: 17%
other
  melting point: 176 to 179 °C

## O=C(/C=C/c1cccc(S(=O)(=O)Nc2ccccc2)c1)NO [Belinostat, reference compound]
MCF-7 cells; Homo sapiens, MCF7, 48 h
  IC50: 2.6 ± 1.4 µM
MCF-7 cells; Homo sapiens
  Emax: 100%
HDAC4
  IC50: 2.7 ± 0.12 µM
HDAC6; IC50 (µM) HDAC6 (Class IIb)
  IC50: 0.2 ± 0.01 µM
MDA-MB 231 cells
  IC50: 3.72 ± 0.5 µM
EMT 6 cells
  IC50: 11.3 ± 2.6 µM
N2A cells
  IC50: 3.66 ± 0.7 µM
Hepa1c1c7 cells
  IC50: 10.1 ± 0.9 µM
SKOV3 cells
  IC50: 32.1 ± 5.5 µM
SW620 cells
  IC50: 14.9 ± 1.2 µM
PANC1 cells
  IC50: 15.7 ± 2.3 µM

## O=C(CSc1nc2ccccc2c(=O)n1Cc1ccc(F)c(F)c1)NO [Compound 4]
MCF-7 cells; Homo sapiens
  Emax: 23%
other
  melting point: 184 to 186 °C

## O=C(CSc1nc2ccccc2c(=O)n1Cc1cccc(F)c1)NO [Compound 3]
MCF-7 cells; Homo sapiens
  Emax: 24%
other
  melting point: 177 to 180 °C

## O=C(CCCCn1c(-c2ccco2)nc2ccccc2c1=O)NO [Compound 15]
MCF-7 cells; Homo sapiens
  Emax: 1.5%
other
  melting point: 195 to 197 °C
